{
  "source": "paper PMC3676669",
  "about": "(Journal of inorganic biochemistry, 2012)",
  "data": [
    {"target": "T1, 20S proteasome, chymotrypsin-like activity (β5 subunit) (Oryctolagus cuniculus, UniProt G1T4Q9)", "T1 sequence (G1T4Q9 1-263)": "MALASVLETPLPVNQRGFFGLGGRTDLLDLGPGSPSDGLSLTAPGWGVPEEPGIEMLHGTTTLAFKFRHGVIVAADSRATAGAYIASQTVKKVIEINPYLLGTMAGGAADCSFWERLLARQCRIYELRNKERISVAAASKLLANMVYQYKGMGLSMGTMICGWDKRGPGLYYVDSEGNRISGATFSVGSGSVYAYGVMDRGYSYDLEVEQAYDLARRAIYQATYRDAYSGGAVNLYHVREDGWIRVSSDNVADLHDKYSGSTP", "test": "fluorogenic Suc-LLVY-AMC hydrolysis by purified […] proteasome, […] h", "format": "biochemical", "units": {"IC50": "µM"}, "values": [
      {"smiles": "COc1cccc2c1[O][Cu-3]13([O]C(=O)C(CCSC)[N+]1=C2)[n+]1cccc2ccc4ccc[n+]3c4c21", "note": "(stereo not shown) [C1, [Cu(L1)(Phen)]·9H2O]", "IC50": 13.3},
      {"smiles": "COc1cccc2c1[O][Cu-3]13([O]C(=O)[C@H](CCSC)[N+]1=C2)[n+]1ccccc1-c1cccc[n+]13", "note": "[C2, [Cu(L1)(Bpy)]·3H2O]", "IC50": 46.5},
      {"smiles": "CC(C)[C@H]1C(=O)[O][Cu-3]23([O]c4ccc5ccccc5c4C=[N+]12)[n+]1cccc2ccc4ccc[n+]3c4c21", "note": "[C3, [Cu(L2)(Phen)]·3H2O]", "IC50": 11.3},
      {"smiles": "CC(C)[C@H]1C(=O)[O][Cu-3]23([O]c4ccc5ccccc5c4C=[N+]12)[n+]1ccccc1-c1cccc[n+]13", "note": "[C4, [Cu(L2)(Bpy)]·3H2O]", "IC50": 42.5}
    ]}
  ]
}
